Data: article PMC7686382, “Bioassay-based Corchorus capsularis L. leaf-derived β-sitosterol exerts antileishmanial effects against Leishmania donovani by targeting trypanothione reductase” (Scientific Reports, 2020)

Target: T1, Leishmania donovani trypanothione reductase (LdTryR) (Leishmania donovani, UniProt P39050)
T1 construct: gene TPR; recombinant LdTryR
Assay: spectrophotometric NADPH oxidation assay ([…] nm) on recombinant enzyme, Lineweaver-Burk kinetics
Format: biochemical

T1 sequence (P39050 whole entry): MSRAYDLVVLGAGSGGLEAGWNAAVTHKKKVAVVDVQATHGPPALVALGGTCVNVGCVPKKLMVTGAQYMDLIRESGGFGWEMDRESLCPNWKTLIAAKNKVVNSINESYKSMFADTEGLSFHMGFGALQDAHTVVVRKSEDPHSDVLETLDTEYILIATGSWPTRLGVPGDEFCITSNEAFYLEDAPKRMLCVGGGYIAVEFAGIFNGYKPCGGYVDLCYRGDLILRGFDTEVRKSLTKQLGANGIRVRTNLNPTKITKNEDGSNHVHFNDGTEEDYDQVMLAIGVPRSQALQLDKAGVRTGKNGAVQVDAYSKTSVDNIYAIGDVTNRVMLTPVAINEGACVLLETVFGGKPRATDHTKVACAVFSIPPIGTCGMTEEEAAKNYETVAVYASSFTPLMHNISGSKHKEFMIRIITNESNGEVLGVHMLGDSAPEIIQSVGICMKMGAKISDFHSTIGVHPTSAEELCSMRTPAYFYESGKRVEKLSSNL

**Q.** Which Ki does the source give for `CC[C@H](CC[C@@H](C)[C@H]1CC[C@H]2[C@@H]3CC=C4C[C@@H](O)CC[C@]4(C)[C@H]3CC[C@]12C)C(C)C` [β-sitosterolCCL, β-sitosterol] here?
**A.** 8.43 µM
